How the values were obtained:
ruminal microorganisms = experiment: Effect of cobalt on methane, pH, ammonia-N, and digestibility in continuous cultures of ruminal microorganisms (Table 10); type: cell-based; conditions: for IVDMTD (in vitro dry matter true digestibility), %: 24 h incubation; for Culture pH, Post-feeding / Methane, nmol/ml, Post-feeding: average of samples at 1, 2, 4 and 6 h after AM feeding; for Culture pH, Pre-feeding / Methane, nmol/ml, Pre-feeding: samples taken at 0 hours
Method: Ammonia-N concentrations were not affected (P>0.10) by dietary treatments. […] There was a source x level interaction (P<0.001) for neutral detergent fiber (NDF) digestibility (Table 6). […] Earlier studies reported no effect on DM and NDF digestibility when Co was added at the 5.0 or 10.0 ppm levels.

[1] = system: Fast & Fine Premium Grass Seed; experiment: Greenhouse flats, plant growth: Fast & Fine Grass seed, Flats 17-24 (Table 4); type: in vivo, Perennial Ryegrass, Creeping Red Fescue, Kentucky Bluegrass; conditions: 1 ppm applied to the soil; second year
Method: (§1) Sixty-four sample flats were analyzed. Empty flats were filled with about 0.25 cubic feet of Miracle Gro Soil per flat (a complete soil with enough macro-nutrients, nitrogen, phosphorus and potash to feed the plants for 3-4 months). The seeds were planted and then the seeded soil treated. Flats were watered daily. Progress was documented weekly. This number of flats resulted from running a number of positive controls and several levels of the chelated cobalt lactate per plant selection or choice.
(§2) The makeup of 64 flats was 8 sections times 8 flats per section. The first 8 flats were planted with a mixture of clovers. Flats 9-16 were also planted with the clover mixture at 5.2 grams seed/flat versus 2.6 grams seed/flat in 1-8. Flats 17-24 were planted with Fast & Fine Seed at 2.6 grams/flat, equivalent to the seeding rate from 2008. Fast & Fine Premium Grass Seed is a commercial mixture of Indy Perennial Ryegrass, Silver Dollar Perennial Ryegrass, Boreal Creeping Red Fescue, Kelly Kentucky Bluegrass and Clearwater Kentucky Bluegrass. Flats 25-32 were planted with a mixture including green globe turnips, dwarf Essex forage rapeseed, Rangi forage and giant rapeseed. Flats 33-40 were planted with a mixture of seeds including hybrid sunflower, grain sorghum, Proso millet and buck-wheat, at 5.2 grams/flat. […]

grass = experiment: Growth of grass with cobalt lactate applied in the soil or sprayed (Example 1, Table 1); type: in vivo
Source text: In Table 1, the growth of grass when cobalt lactate was applied either in the soil (before seeding) or sprayed directly onto the grass once growing is shown for the various levels of cobalt (0, 1, 10, 100 and 1000 ppm) that was applied. Following growth 2, cuttings were made then the total weight of grass was shown for the various treatments. […] All work was done with a fully complete soil with respect to nitrogen, phosphorus and potash (Miracle Gro Soil), so that the only difference in the greenhouse flats was the applied cobalt level and the manner in which it was applied.

Food Plot Clover Mix = experiment: Greenhouse flats, plant growth (sprouts, harvest weight, % of control): Food Plot Clover Mix, Flats 1-16 (Tables 2, 3); type: in vivo, mixture of clovers; conditions: Flat 13, Clover Mix 5.2 g seed/flat
Method: as §1, §2

[2] = Cobalt Medium DI H2O (spray), Target Cobalt Level 1 ppm
[3] = Cobalt Medium DI H2O (spray), Target Cobalt Level 10 ppm
[4] = Cobalt Medium DI H2O (spray), Target Cobalt Level 100 ppm
[5] = Cobalt Medium DI H2O (spray), Target Cobalt Level 1000 ppm
[6] = Cobalt Medium Soil, Target Cobalt Level 1 ppm
[7] = Cobalt Medium Soil, Target Cobalt Level 10 ppm
[8] = Cobalt Medium Soil, Target Cobalt Level 100 ppm
[9] = Cobalt Medium Soil, Target Cobalt Level 1000 ppm

Compound: O=C([O-])[O-].[Co+2] [Cobalt Carbonate, cobalt carbonate]
- Ammonia-N (ruminal microorganisms; 0.2 ppm): 10.79 mg/dL
- NDF Digestibility, % (ruminal microorganisms; 0.2 ppm): 23.16%
- IVDMTD (in vitro dry matter true digestibility), % (ruminal microorganisms; 0.2 ppm): 59.35%
- Culture pH, Post-feeding (ruminal microorganisms; 0.2 ppm): 5.56
- Methane, nmol/ml, Post-feeding (ruminal microorganisms; 0.2 ppm): 403.14 nmol/mL
- Culture pH, Pre-feeding (ruminal microorganisms; 0.2 ppm): 5.81
- Methane, nmol/ml, Pre-feeding (ruminal microorganisms; 0.2 ppm): 363.91 nmol/mL
- Ammonia-N (ruminal microorganisms; 1.0 ppm): 10.88 mg/dL
- NDF Digestibility, % (ruminal microorganisms; 1.0 ppm): 17.09%
- Effect on NDF digestibility (ruminal microorganisms; 1.0 ppm level): negative effect
- IVDMTD (in vitro dry matter true digestibility), % (ruminal microorganisms; 1.0 ppm): 59.17%
- Culture pH, Post-feeding (ruminal microorganisms; 1.0 ppm): 5.55
- Methane, nmol/ml, Post-feeding (ruminal microorganisms; 1.0 ppm): 515.35 nmol/mL
- Culture pH, Pre-feeding (ruminal microorganisms; 1.0 ppm): 5.88
- Methane, nmol/ml, Pre-feeding (ruminal microorganisms; 1.0 ppm): 347.82 nmol/mL
- Effect on methane concentration (ruminal microorganisms; continuous cultures, P>0.10 for no effect): significant negative impact

Compound: CC(O)C(=O)[O-].CC(O)C(=O)[O-].[Co+2] (stereo not shown) [cobalt lactate]
- Grass growth [1]: double the grass growth
- Grass Cuttings Weight (gms, 1st) (grass; [2]): 15.7 gms
- Grass Cuttings Weight (gms, 2nd) (grass; [2]): 13.9 gms
- Sum Grass Cuttings Weight (gms, 1st + 2nd) (grass; [2]): 29.6 gms
- Grass Cuttings Weight (gms, 1st) (grass; [3]): 17.76 gms
- Grass Cuttings Weight (gms, 2nd) (grass; [3]): 14.37 gms
- Sum Grass Cuttings Weight (gms, 1st + 2nd) (grass; [3]): 32.13 gms
- Grass Cuttings Weight (gms, 1st) (grass; [4]): 18.56 gms
- Grass Cuttings Weight (gms, 2nd) (grass; [4]): 26.57 gms
- Sum Grass Cuttings Weight (gms, 1st + 2nd) (grass; [4]): 45.13 gms
- Grass Cuttings Weight (gms, 1st) (grass; [5]): 24.03 gms
- Grass Cuttings Weight (gms, 2nd) (grass; [5]): 15.44 gms
- Sum Grass Cuttings Weight (gms, 1st + 2nd) (grass; [5]): 39.47 gms
- Grass Cuttings Weight (gms, 1st) (grass; [6]): 31.06 gms
- Grass Cuttings Weight (gms, 2nd) (grass; [6]): 22.73 gms
- Sum Grass Cuttings Weight (gms, 1st + 2nd) (grass; [6]): 53.79 gms
- Grass Cuttings Weight (gms, 1st) (grass; [7]): 22.8 gms
- Grass Cuttings Weight (gms, 2nd) (grass; [7]): 31.41 gms
- Sum Grass Cuttings Weight (gms, 1st + 2nd) (grass; [7]): 54.21 gms
- Grass Cuttings Weight (gms, 1st) (grass; [8]): 16.33 gms
- Grass Cuttings Weight (gms, 2nd) (grass; [8]): 10.12 gms
- Sum Grass Cuttings Weight (gms, 1st + 2nd) (grass; [8]): 26.45 gms
- Grass Cuttings Weight (gms, 1st) (grass; [9]): 5.15 gms
- Grass Cuttings Weight (gms, 2nd) (grass; [9]): 1.81 gms
- Sum Grass Cuttings Weight (gms, 1st + 2nd) (grass; [9]): 6.96 gms
- Growth of grass (grass; applied in the soil at 1 or 10 ppm or applied by spray at 100 ppm): roughly doubled
- Growth ahead of the positive control (Delt Ag) (Food Plot Clover Mix): 13%

Reference: patent publication US11078127B2, “Organically chelated mineral compositions and methods thereof” (Ralco Nutrition, Inc., priority 2009, dated 2021)
